Data from US20050112573A1, “Method of detecting toxic substance” (priority 2001, published 2005).

Tested on: yeast genes (level of expressed mRNA)
Test: DNA chip analysis of expressed mRNA of yeast genes after 2 h culture with a toxic chemical substance
Type: cell-based, Saccharomyces cerevisiae S288C
Conditions: for The level of expressed mRNA in the presence of chemical substance/ (ratio to absence of chemical substance): stress protein genes, DNA chip; for The level of expressed mRNA in the presence of chemical substance/ in its absence, gene YPR184W: yeast gene YPR184W
Experimental: Yeast (Saccharomyces cerevtisiae S288C (α SUC2mal mel gap2 CUP1)) were cultured at 25° C. on YPD medium (yeast extract 1%, polypepton 2%, glucose 2%). One of toxic chemical substances was added to the cell at logarithmic growth phase, and the cell was further cultured for two hours. Cell was cultured without any chemical substance in the same condition, and was used as control. Concentrations of the chemical substances were defined to inhibit the growth of the yeast but not lead to death.
After the completion of cultivation, the culture was centrifuged to collect the cells. To the cells, sodium acetate buffer (50 mM sodium acetate, 10 mM EDTA, 1% SDS) was added, and the mixture was shaken at 65° C. for five minutes, followed by returning to room temperature, and obtaining the supernatant, which procedure was repeated two times. To the supernatant, ½ amount of a solution of phenol/chloroform was added, and the mixture was centrifuged to give a supernatant, which was added with an equal amount of chloroform, and the mixture was centrifuged to give a supernatant. To the supernatant, an equal amount of isopropanol containing 0.3 M sodium acetate was added, and the mixture was allowed to stand at room temperature for 30 minutes, after which the mixture was centrifuged to give a sediment of the whole RNAs. Seventy % ethanol was added to the sediment, and the mixture was again centrifuged to give a sediment, which was then dried and dissolved in water. mRNA was isolated from the whole RNAs as followings. In view of the fact that a poly A chain is attached to the 3′ terminus of mRNA, a polynucleotide having a poly T structure which was immobilized on the surface of latex beads was used to trap the mRNA, and then the mRNA was washed and eluted with spine column (Oligotex-dT30<Super>mRNA Purification Kit, Takara). Reverse transcription of the mRNA was conducted with a reverse transcriptase (Super Script II Reverse Transcriptase; catalogue No. 18064-014, GibcoBRL) using fluorescence-labeled nucleotides to give cDNAs that were introduced with Cy3-dUTP or Cy5-dUTP during the reverse transcription.
The labeled cDNAs were dissolved in TE buffer (10 mM Tris-HCl/1 mM EDTA, pH8.0), and the solution was dropped on the DNA chip containing the whole genes of yeast (DNA Chip Research Inc. Japan) so that the cDNAs were hybridized on the DNA chip at 65° C. for over 12 hours. The fluoresces intensity of the DNA chip was read with a scanner, and the ratio relative to the fluorescence intensity resulting from the absence of chemical substance was estimated as the following, which is shown in Tables 1 to 9: [formula]
In the Tables, “Intensity” indicated in the rightmost column is a value of the level of expressed mRNA of each gene in control cells as divided by the average level of the expressions of the whole genes.

SMILES: COc1cc(CNC(=O)CCCCC=CC(C)C)ccc1O [(12), 8-methyl-N-vanillyl-6-nonenamide]
- The level of expressed mRNA in the presence of chemical substance/The level of expressed mRNA in the absence of chemical substance (yeast gene YMR314W): 1.0
- The level of expressed mRNA in the presence of chemical substance/The level of expressed mRNA in the absence of chemical substance (yeast gene YNL006W): 0.7
- The level of expressed mRNA in the presence of chemical substance/The level of expressed mRNA in the absence of chemical substance (yeast gene YNL007C): 0.7
- The level of expressed mRNA in the presence of chemical substance/ (in its absence), gene YNL025C (yeast gene YNL025C, ratio of DNA chip fluorescence intensity to that without chemical substance): 0.8
- The level of expressed mRNA in the presence of chemical substance/ (ratio to absence of chemical substance) (yeast gene YNL064C): 0.8
- The level of expressed mRNA in the presence of chemical substance/ (ratio to absence), gene YNL073W (yeast gene YNL073W, mitochondria-located protein genes, 2 h culture with chemical): 0.7
- The level of expressed mRNA in the presence of chemical substance/The level of expressed mRNA in the absence of chemical substance (yeast gene YNL093W): 1.1
- The level of expressed mRNA in the presence of chemical substance/ (in its absence), gene YNL192W (yeast gene YNL192W, ratio of DNA chip fluorescence intensity to that without chemical substance): 1.1
- The level of expressed mRNA in the presence of chemical substance/The level of expressed mRNA in the absence of chemical substance (yeast gene YNL333W): 1.0
- The level of expressed mRNA in the presence of chemical substance/The level of expressed mRNA in the absence of chemical substance (yeast gene YNR010W): 0.8
- The level of expressed mRNA in the presence of chemical substance/The level of expressed mRNA in the absence of chemical substance (yeast gene YNR069C): 1.2
- The level of expressed mRNA in the presence of chemical substance/ (in its absence), gene YNR072W (yeast gene YNR072W, ratio of DNA chip fluorescence intensity to that without chemical substance): 1.0
- The level of expressed mRNA in the presence of chemical substance/ (ratio to absence of chemical substance) (yeast gene YNR076W): 0.7
- The level of expressed mRNA in the presence of chemical substance/The level of expressed mRNA in the absence of chemical substance (yeast gene YOL013C): 1.1
- The level of expressed mRNA in the presence of chemical substance/ (ratio to absence), gene YOL096C (yeast gene YOL096C, mitochondria-located protein genes, 2 h culture with chemical): 1.2
- The level of expressed mRNA in the presence of chemical substance/ (in its absence), gene YOL096C (yeast gene YOL096C, ratio of DNA chip fluorescence intensity to that without chemical substance): 1.2
- The level of expressed mRNA in the presence of chemical substance/ (in its absence), gene YOL108C (yeast gene YOL108C, ratio of DNA chip fluorescence intensity to that without chemical substance): 1.0
- The level of expressed mRNA in the presence of chemical substance/ (in its absence), gene YOL116W (yeast gene YOL116W, ratio of DNA chip fluorescence intensity to that without chemical substance): 0.6
- The level of expressed mRNA in the presence of chemical substance/ (ratio to absence of chemical substance) (yeast gene YOL161C): 1.3
- The level of expressed mRNA in the presence of chemical substance/The level of expressed mRNA in the absence of chemical substance (yeast gene YOL164W): 1.1
- The level of expressed mRNA in the presence of chemical substance/ (ratio to absence of chemical substance) (yeast gene YOR008C): 0.7
- The level of expressed mRNA in the presence of chemical substance/ (ratio to absence of chemical substance) (yeast gene YOR009W): 0.4
- The level of expressed mRNA in the presence of chemical substance/ (ratio to absence of chemical substance) (yeast gene YOR010C): 0.5
- The level of expressed mRNA in the presence of chemical substance/The level of expressed mRNA in the absence of chemical substance (yeast gene YOR036W): 1.2
- The level of expressed mRNA in the presence of chemical substance/ (in its absence), gene YOR103C (yeast gene YOR103C, ratio of DNA chip fluorescence intensity to that without chemical substance): 1.2
- The level of expressed mRNA in the presence of chemical substance/The level of expressed mRNA in the absence of chemical substance (yeast gene YOR117W): 2.5
- The level of expressed mRNA in the presence of chemical substance/The level of expressed mRNA in the absence of chemical substance (yeast gene YOR124C): 0.9
- The level of expressed mRNA in the presence of chemical substance/The level of expressed mRNA in the absence of chemical substance (yeast gene YOR132W): 0.7
- The level of expressed mRNA in the presence of chemical substance/The level of expressed mRNA in the absence of chemical substance (yeast gene YOR157C): 1.3
- The level of expressed mRNA in the presence of chemical substance/ (in its absence), gene YOR180C (yeast gene YOR180C, ratio of DNA chip fluorescence intensity to that without chemical substance): 0.8
- The level of expressed mRNA in the presence of chemical substance/The level of expressed mRNA in the absence of chemical substance (yeast gene YOR181W): 0.8
- The level of expressed mRNA in the presence of chemical substance/The level of expressed mRNA in the absence of chemical substance (yeast gene YOR185C): 1.5
- The level of expressed mRNA in the presence of chemical substance/The level of expressed mRNA in the absence of chemical substance (yeast gene YOR198C): 1.5
- The level of expressed mRNA in the presence of chemical substance/ (in its absence), gene YOR251C (yeast gene YOR251C, ratio of DNA chip fluorescence intensity to that without chemical substance): 0.9
- The level of expressed mRNA in the presence of chemical substance/The level of expressed mRNA in the absence of chemical substance (yeast gene YOR259C): 0.8
- The level of expressed mRNA in the presence of chemical substance/The level of expressed mRNA in the absence of chemical substance (yeast gene YOR261C): 0.9
- The level of expressed mRNA in the presence of chemical substance/The level of expressed mRNA in the absence of chemical substance (yeast gene YOR288C): 1.4
- The level of expressed mRNA in the presence of chemical substance/ (ratio to absence), gene YOR316C (yeast gene YOR316C, mitochondria-located protein genes, 2 h culture with chemical): 1.1
- The level of expressed mRNA in the presence of chemical substance/ (in its absence), gene YOR348C (yeast gene YOR348C, ratio of DNA chip fluorescence intensity to that without chemical substance): 0.7
- The level of expressed mRNA in the presence of chemical substance/The level of expressed mRNA in the absence of chemical substance (yeast gene YOR355W): 0.9
- The level of expressed mRNA in the presence of chemical substance/ (in its absence), gene YOR363C (yeast gene YOR363C, ratio of DNA chip fluorescence intensity to that without chemical substance): 0.9
- The level of expressed mRNA in the presence of chemical substance/The level of expressed mRNA in the absence of chemical substance (yeast gene YOR383C): 1.1
- The level of expressed mRNA in the presence of chemical substance/ (ratio to absence), gene YPL040C (yeast gene YPL040C, mitochondria-located protein genes, 2 h culture with chemical): 0.9
- The level of expressed mRNA in the presence of chemical substance/ (ratio to absence of chemical substance) (yeast gene YPL059W): 0.8
- The level of expressed mRNA in the presence of chemical substance/The level of expressed mRNA in the absence of chemical substance (yeast gene YPL089C): 0.7
- The level of expressed mRNA in the presence of chemical substance/The level of expressed mRNA in the absence of chemical substance (yeast gene YPL109C): 0.9
- The level of expressed mRNA in the presence of chemical substance/ (ratio to absence), gene YPL134C (yeast gene YPL134C, mitochondria-located protein genes, 2 h culture with chemical): 0.8
- The level of expressed mRNA in the presence of chemical substance/ (ratio to absence of chemical substance) (yeast gene YPL140C): 0.8
- The level of expressed mRNA in the presence of chemical substance/ (in its absence), gene YPL148C (yeast gene YPL148C, ratio of DNA chip fluorescence intensity to that without chemical substance): 0.7
- The level of expressed mRNA in the presence of chemical substance/The level of expressed mRNA in the absence of chemical substance (yeast gene YPL149W): 0.9
- The level of expressed mRNA in the presence of chemical substance/The level of expressed mRNA in the absence of chemical substance (yeast gene YPL154C): 1.5
- The level of expressed mRNA in the presence of chemical substance/ (ratio to absence of chemical substance) (yeast gene YPL194W): 0.9
- The level of expressed mRNA in the presence of chemical substance/ (ratio to absence of chemical substance) (yeast gene YPR005C): 0.6
- The level of expressed mRNA in the presence of chemical substance/The level of expressed mRNA in the absence of chemical substance (yeast gene YPR103W): 1.2
- The level of expressed mRNA in the presence of chemical substance/The level of expressed mRNA in the absence of chemical substance (yeast gene YPR108W): 1.0
- The level of expressed mRNA in the presence of chemical substance/ (in its absence), gene YPR165W (yeast gene YPR165W, ratio of DNA chip fluorescence intensity to that without chemical substance): 0.8
- The level of expressed mRNA in the presence of chemical substance/ in its absence, gene YPR184W (energy system protein genes, 2 h culture with the chemical, ratio to control without chemical): 1.4
- The level of expressed mRNA in the presence of chemical substance/ in its absence, gene YPR184W (ratio of DNA chip fluorescence intensity to that without chemical substance): 1.4
